Test results published in patent publication US20220079912A1, “ANTICANCER FORMULATION” (University of Mississippi, priority 2018, published 2022).

How the values were obtained:
[1] = tested on: T98G cells; assay: Combination cytotoxicity with mitochondrial complex I inhibitors (% cell survival)
From the text: Example 2: Gnetin H In Combination with Mitochondrial Complex I Inhibitors. […] The plus signs above the combination treatment bars indicates the value of % cell survival if the anti-proliferative effect was additive.
In FIGS. 9 A-B., the plus signs are placed above the combination treatment bars at the % cell survival value if the anti-proliferative effect was additive. […] Both T98G and MDA-MB-231 cells lack functional p53 but B16 are p53 wild type.
Example 4: Peony Seed extract. […] T98G cells were treated with different concentrations of purified GH (numbers indicate μM) or PSE (numbers indicate μg/ml) alone or in combination with a Paw Paw (PP) extract (2 μg/ml) for 48 hrs (FIG. 12 A). The plus signs are placed above the combination treatment bars at the % cell survival value if the anti-proliferative effect was additive. […] T98G cells were treated with different concentrations of purified GH or PSE in combination with a Paw Paw extract (2 μg/ml) for 48 hrs (FIG. 12 B).

[2] = tested on: MDA-MB-231 breast cancer cells; assay: Colony formation assay, combination with DHEA; type: cell-based, human; conditions: MDA-MB-231, 24 h, FIG. 20
[3] = tested on: TXNIP protein levels; assay: Western blot of TXNIP protein, MDA-MB-231 cell line; type: cell-based, human; conditions: FIG. 16, FIG. 18
From the text: (§1) AMPK activation has been previously shown to phosphorylate and cause the degradation of TXNIP during energy stress (13).

[4] = tested on: T98G human glioblastoma cells; assay: Lactic acid accumulation in cell culture medium; type: cell-based; conditions: FIG. 2B
[5] = tested on: B16 cells; assay: Glucose transport (2-NBDG accumulation); type: cell-based, mouse; conditions: B16, treated for one hour followed by 2-NBDG for one hour
[6] = tested on: BNC6 patient derived Glioblastoma cells; assay: Colony formation assay, combination with DHEA; type: cell-based, human; conditions: BNC6, 24 h, FIG. 20
[7] = tested on: T98G glioblastoma cells; assay: Cell proliferation / cell survival; type: cell-based, human; conditions: varying concentrations, 48 hours, dose dependent, FIG. 1
Experimental: B16 mouse melanoma cells, T98G glioblastoma cells, and MDA-MB-231 human breast cancer cells were treated with varying concentrations of GH for 48 hours with cell survival measured.

[8] = tested on: cancer stem cells (CSCs) grown from BNC3 patient derived Glioblastoma cells; assay: Cell viability by Trypan Blue exclusion cell count, combination with DHEA; type: cell-based, human; conditions: 24 h, FIGS. 21A-B
[9] = tested on: B16 mouse melanoma cells; assay: Cell proliferation / cell survival; type: cell-based; conditions: B16, varying concentrations, 48 hours, dose dependent, FIG. 1
Experimental: (§2) Example 1: trans-Gnetin H (GH)—Trans-Gnetin H inhibits cell proliferation. […] B16 mouse melanoma cells, T98G glioblastoma cells, and MDA-MB-231 human breast cancer cells were treated with varying concentrations of GH for 48 hours with cell survival measured. The B16 mouse melanoma cell line was the most sensitive to the anti-proliferative action of GH, perhaps due to the highly glycolytic nature of these cells and/or that they contain wild type p53.

[10] = tested on: MDA-MB-231 human breast cancer cells; assay: Cell proliferation / cell survival; type: cell-based; conditions: MDA-MB-231, varying concentrations, 48 hours, dose dependent, FIG. 1
Experimental: as §2

[11] = tested on: PA-1 Ovarian cancer; assay: Colony formation assay, combination with DHEA; type: cell-based, human; conditions: PA-1, 24 h, FIG. 20
[12] = tested on: cancer stem cell (CSC) populations from two patients with Temodar (TMZ)-resistant glioblastoma; assay: Combination cytotoxicity with Paw Paw acetogenin extract; type: cell-based, human; conditions: GH 4 μM, FIG. 11
From the text: (§3) Example 3: Paw Paw Extract.

[13] = tested on: bulk tumor cells from two patients with Temodar (TMZ)-resistant glioblastoma; assay: as above; type: cell-based, human; conditions: GH 4 μM, FIG. 11
From the text: as §3

[14] = tested on: KHOS; assay: Combination cytotoxicity with phenformin; type: cell-based; conditions: data not shown
[15] = tested on: TXNIP protein levels; assay: Western blot of TXNIP protein, T98G cell line; type: cell-based, human; conditions: FIG. 15, FIG. 17
From the text: as §1

[16] = tested on: SKOV-3 ovarian cancer; assay: Colony formation assay, combination with DHEA; type: cell-based, human; conditions: SKOV-3, 24 h, FIG. 20
[17] = tested on: SK-MEL; assay: Combination cytotoxicity with phenformin; type: cell-based; conditions: data not shown
[18] = tested on: Mia-PACA pancreatic cancer; assay: Colony formation assay, combination with DHEA; type: cell-based, human; conditions: 24 h, FIG. 20
[19] = tested on: B16 mouse melanoma cells; assay: Lactic acid accumulation in cell culture medium; type: cell-based; conditions: B16, FIG. 2A
From the text: (§4) During cell survival experiments the acidification of the cell culture medium was inhibited when GH was present. Acidification of the cell culture medium occurs because of the enhanced use of glycolysis by transformed cells (and resulting increase in lactic acid production). This led us to investigate whether GH reduced lactic acid levels in the cell culture medium.

[20] = tested on: MDA-MB-231 human breast cancer cells; assay: Lactic acid accumulation in cell culture medium; type: cell-based; conditions: MDA-MB-231, FIG. 2C
From the text: as §4

[21] = tested on: BNC16 patient derived Glioblastoma cells; assay: Colony formation assay, combination with DHEA; type: cell-based, human; conditions: BNC16, 24 h, FIG. 20
[22] = tested on: ARRDC4 mRNA; assay: Differential gene expression analysis (RNA-Seq) in T98G cells; type: cell-based, human; conditions: 2 hours, GH 8 μM, 2-DG 25 mM, Ph 100, minus = reduced, plus = increase, NC = no change
From the text: (§5) GH inhibits expression of TXNIP and ARRDC4 mRNAs. […] Since the transcription factors (MondoA/Mlx complex) regulating the expression of the TXNIP gene is thought to be controlled by intermediates in the upper portion of the glycolytic pathway (12), GH may be negatively impacting this portion of glycolysis. Reduction in the levels of these intermediates by GH would prevent activation of the MondoA/Mlx transcription complex and would result in suppression of TXNIP transcription and TXNIP mRNA levels. Both of these gene products (TXNIP and ARRDC4) are thought to suppress glucose transport by enhancing degradation of glucose transporters (12).

[23] = tested on: TXNIP mRNA; assay: as above; type: cell-based, human; conditions: 2 hours, GH 8 μM, 2-DG 25 mM, Ph 100, minus = reduced, plus = increase, NC = no change
From the text: as §5

[24] = tested on: BNC41 patient derived Glioblastoma cells; assay: Colony formation assay, combination with DHEA; type: cell-based, human; conditions: BNC41, 24 h, FIG. 20
[25] = GH 8 μM 6 hrs or 3 hrs, 2-DG 25 mM, OXA 25 mM, BPX 25 μM, DCA 25 mM, 6 hr

Oc1ccc(/C=C/c2c3c(cc4c2[C@H](c2cc(O)cc(O)c2)[C@@H](c2ccc(O)cc2)O4)O[C@H](c2ccc(O)cc2)[C@H]3c2cc(O)cc(O)c2)cc1 (relative stereo) [GH, trans-Gnetin H]
synergistic cytotoxicity in combination with Paw Paw (PP) extract (2 μg/ml) [1]: exhibited synergistic cytotoxicity | synergistic cytotoxicity in combination with acetogenins (PP) at 1 μg/ml [1]: synergistically cytotoxic | IC50 in combination with PP ([1]; T98G, Paw Paw extract 2 μg/ml, 48 hrs, FIG. 12 B): 1.3 µg/mL | cytotoxicity in combination with DHEA (cell staining) [2]: cytotoxic | TXNIP protein levels, in combination with Ph [3]: reduction of TXNIP protein levels | TXNIP protein levels, agent alone [3, 25]: dramatic reduction in the levels of TXNIP protein | lactic acid production [4]: inhibits lactic acid production | effect on accumulation of 2-NBDG (glucose transport) [5]: did not influence the accumulation | cytotoxicity in combination with DHEA (cell staining) [6]: cytotoxic | inhibition of cell proliferation (cell survival) [7]: inhibits the proliferation | cytotoxicity in combination with DHEA (percentage of cell viability) [8]: cytotoxic | inhibition of cell proliferation (cell survival) [9]: inhibits the proliferation | inhibition of cell proliferation (cell survival) [10]: inhibits the proliferation | cytotoxicity in combination with DHEA (cell staining) [11]: cytotoxic | synergistic cytotoxicity in combination with acetogenin extract from Paw Paw (PP-2 μg/ml) [12]: synergistically cytotoxic | synergistic cytotoxicity in combination with acetogenin extract from Paw Paw (PP-2 μg/ml) [13]: synergistically cytotoxic | synergistic cytotoxicity with phenformin [14]: synergistically cytotoxic | TXNIP protein levels, in combination with Ph [15]: reduction of TXNIP protein levels | TXNIP protein levels, agent alone [15, 25]: dramatic reduction in the levels of TXNIP protein | cytotoxicity in combination with DHEA (cell staining) [16]: cytotoxic | synergistic cytotoxicity with phenformin [17]: synergistically cytotoxic | cytotoxicity in combination with DHEA (cell staining) [18]: cytotoxic | lactic acid production [19]: inhibits lactic acid production | lactic acid production [20]: inhibits lactic acid production | cytotoxicity in combination with DHEA (cell staining) [21]: cytotoxic | ARRDC4 mRNA fold change [22]: −6 fold | TXNIP mRNA fold change [23]: −88 fold | cytotoxicity in combination with DHEA (cell staining) [24]: cytotoxic
